Assay results: US20250092065A1, “2-(INDAZOL-5-YL)-6-(PIPERIDIN-4-YL)-1,7-NAPHTHYRIDINE DERIVATIVES AND RELATED COMPOUNDS AS MODULATORS FOR SPLICING NUCLEIC ACIDS AND FOR THE TREATMENT OF PROLIFERATIVE DISEASES” (REMIX THERAPEUTICS INC., priority 2022, published 2025)
Counter-ions that a name gives are not always drawn.

Key:
[1] = test system: Target C; assay: HiBiT protein abundance assay, Target C (K562 HiBiT knock-in); type: cell-based, human; settings: HiBiT knock-in K562 cells, 24 hours, top dose 10 μM
Procedure, shortened: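 K562 HiBiT knock-in cells (10000/well) were treated 24 h at 37° C with a 10-point 3-fold dilution series (top 10 μM final, ≤0.25% DMSO). HiBiT luminescence was read after lytic LgBiT detection. Percent response used unmodified K562 and DMSO-treated knock-in controls, and IC50 came from a four-parameter fit at 50% of untreated.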

[2] = test system: Target C; assay: RT-qPCR canonical junction panel assay, Target C mRNA; type: cell-based; settings: Table 4, read-out: Target C IC50 (decrease in CJ mRNA levels)
Procedure, shortened: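 IC50 is the concentration giving 50% CJ decrease, from a 4-parameter logistic fit of percent response; response derived from ΔΔCt against housekeeper and DMSO over a fixed ΔCt window, with canonical exon-junction qPCR in compound-treated K562 or A673 cells.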

[3] = test system: HTT; assay: HiBiT protein abundance assay, HTT (K562 HiBiT knock-in); type: cell-based, human; settings: HiBiT knock-in K562 cells, 24 hours, top dose 10 μM
Procedure, shortened: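 K562 HiBiT knock-in, 24 h, 37 °C, top 10 μM final, 3-fold ×10, DMSO ≤0.25%. Lytic HiBiT luminescence; PC = parental K562, NC = DMSO; 4PL IC50.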

[4] = test system: K562 cells; assay: Cell Titer Glo 2.0 cell viability (toxicity) assay, K562; settings: 500 cells/well, 72 hours

C[C@H]1CN(c2cc(F)c3nc(-c4cc(F)c5nn(C)cc5c4)ccc3c2)C[C@H](C)N1 (single isomer, unassigned) [Compound 760]
IC50 [1]: 100 to 1000 nM | IC50 [2]: 100 to 1000 nM | IC50 [3]: 100 to 1000 nM | Effect of Exemplary Compounds on Cell Viability, K562 [4]: B (B represents 100-1000 nM)

C[C@H]1CN(c2cc(F)c3nc(-c4cc5cn(C)nc5cc4O)ccc3c2)C[C@H](C)N1 (single isomer, unassigned) [Compound 770]
IC50 [1]: 100 to 1000 nM | IC50 [2]: 100 to 1000 nM | IC50 [3]: < 100 nM | Effect of Exemplary Compounds on Cell Viability, K562 [4]: B (B represents 100-1000 nM)

Cc1cn2nc(-c3ccc4cc(N5C[C@H](C)N[C@@H](C)C5)cc(F)c4n3)cc(C)c2n1 (single isomer, unassigned) [Compound 799]
IC50 [1]: 100 to 1000 nM | IC50 [2]: 1000 to 10000 nM | IC50 [3]: 100 to 1000 nM | Effect of Exemplary Compounds on Cell Viability, K562 [4]: B (B represents 100-1000 nM)

Cc1c(O)c(-c2ccc3cc(N4C[C@H](C)N[C@@H](C)C4)cc(F)c3n2)cc2cn(C)nc12 (single isomer, unassigned) [Compound 800, 2,2,2-trifluoroacetate]
IC50 [1]: < 100 nM | IC50 [2]: 100 to 1000 nM | IC50 [3]: < 100 nM | Effect of Exemplary Compounds on Cell Viability, K562 [4]: A (A represents <100 nM)

Cc1nc(-c2cc3cn(C)nc3cc2O)nc2ccc(N3C[C@H](C)N[C@@H](C)C3)cc12 (single isomer, unassigned) [Compound 806]
IC50 [1]: 1000 to 10000 nM | IC50 [2]: > 10000 nM | IC50 [3]: 100 to 1000 nM | Effect of Exemplary Compounds on Cell Viability, K562 [4]: B (B represents 100-1000 nM)

Cc1nc(-c2cc3cn(C)nc3c(C)c2O)nc2ccc(N3C[C@H](C)N[C@@H](C)C3)cc12 (single isomer, unassigned) [Compound 807]
IC50 [1]: > 10000 nM | IC50 [2]: > 10000 nM | IC50 [3]: 100 to 1000 nM | Effect of Exemplary Compounds on Cell Viability, K562 [4]: B (B represents 100-1000 nM)

Cn1cc2cc(-c3cc4ccc(C5CCNCC5)nc4cn3)c(O)cc2n1 [Compound 104]
IC50 [1]: 1000 to 10000 nM | IC50 [2]: 1000 to 10000 nM | IC50 [3]: 1000 to 10000 nM | Effect of Exemplary Compounds on Cell Viability, K562 [4]: C (C represents 1000-9999 nM)

Cn1cc2cc(-c3ccc4nc(N5CC[C@H](NC6CCC6)C5)ccc4n3)c(O)cc2n1 [Compound 156]
IC50 [1]: < 100 nM | IC50 [2]: 100 to 1000 nM | IC50 [3]: < 100 nM | Effect of Exemplary Compounds on Cell Viability, K562 [4]: B (B represents 100-1000 nM)

CC(C)N[C@H]1CCN(c2ccc3nc(-c4cc5cn(C)nc5cc4O)ccc3n2)C1 [Compound 171]
IC50 [1]: < 100 nM | IC50 [2]: 100 to 1000 nM | IC50 [3]: < 100 nM | Effect of Exemplary Compounds on Cell Viability, K562 [4]: B (B represents 100-1000 nM)

Cc1cn2nc(-c3ccc4nc(N5CCC(NC(C)(C)C)C5)ccc4n3)cc(C)c2n1 (stereo not drawn) [Compound 186]
IC50 [1]: < 100 nM | IC50 [2]: < 100 nM | IC50 [3]: < 100 nM | Effect of Exemplary Compounds on Cell Viability, K562 [4]: B (B represents 100-1000 nM)

Cn1cc2cc(-c3ccc4nc(N5CC[C@H](NCC6CC6)C5)ccc4n3)c(O)cc2n1 [Compound 194]
IC50 [1]: < 100 nM | IC50 [2]: 100 to 1000 nM | IC50 [3]: < 100 nM | Effect of Exemplary Compounds on Cell Viability, K562 [4]: B (B represents 100-1000 nM)

CN(C)C1CCN(c2ccc3nc(-c4cc5cn(C)nc5c(F)c4O)ncc3c2)CC1 [Compound 757, 5-{6-[4-(dimethylamino)piperidin-1-yl]quinazolin-2-yl}-7-fluoro-2-methylindazol-6-ol]
IC50 [1]: 1000 to 10000 nM | IC50 [2]: 1000 to 10000 nM | IC50 [3]: 1000 to 10000 nM | Effect of Exemplary Compounds on Cell Viability, K562 [4]: A (A represents <100 nM)

C[C@@H]1CN(c2cc(F)c3nc(-c4cc(F)c5nn(C)cc5c4)ccc3c2)C[C@H](C)N1 [Compound 758, 6-[(3R,5S)-3,5-dimethylpiperazin-1-yl]-8-fluoro-2-(7-fluoro-2-methylindazol-5-yl)quinoline]
IC50 [1]: 100 to 1000 nM | IC50 [2]: 1000 to 10000 nM | IC50 [3]: 100 to 1000 nM | Effect of Exemplary Compounds on Cell Viability, K562 [4]: B (B represents 100-1000 nM)

C[C@@H]1CN(c2cc(F)c3nc(-c4cc5cn(C)nc5c(F)c4O)ccc3c2)C[C@H](C)N1 [Compound 763, 5-{6-[(3R,5S)-3,5-dimethylpiperazin-1-yl]-8-fluoroquinolin-2-yl}-7-fluoro-2-methylindazol-6-ol hydrochloride]
IC50 [1]: < 100 nM | IC50 [2]: 1000 to 10000 nM | IC50 [3]: < 100 nM | Effect of Exemplary Compounds on Cell Viability, K562 [4]: A (A represents <100 nM)

C[C@@H]1CN(c2cc(F)c3nc(-c4cc5cn(C)nc5cc4O)ccc3c2)C[C@H](C)N1 [Compound 768, 5-{6-[(3R,5S)-3,5-dimethylpiperazin-1-yl]-8-fluoroquinolin-2-yl}-2-methylindazol-6-ol hydrochloride]
IC50 [1]: 1000 to 10000 nM | IC50 [2]: 1000 to 10000 nM | IC50 [3]: 1000 to 10000 nM | Effect of Exemplary Compounds on Cell Viability, K562 [4]: C (C represents 1000-9999 nM)

Cc1cn2cc(-c3ncc4cc(N5C[C@@H](C)N[C@@H](C)C5)ccc4n3)cc(F)c2n1 [Compound 773, 6-[(3R,5S)-3,5-dimethylpiperazin-1-yl]-2-{8-fluoro-2-methylimidazo[1,2-a]pyridin-6-yl}quinazoline]
IC50 [1]: 100 to 1000 nM | IC50 [2]: 1000 to 10000 nM | IC50 [3]: 100 to 1000 nM | Effect of Exemplary Compounds on Cell Viability, K562 [4]: B (B represents 100-1000 nM)

Cc1cn2cc(-c3nc(C(=O)NC4CCC4)c4cc(N5C[C@@H](C)N[C@@H](C)C5)ccc4n3)cc(F)c2n1 [Compound 779, N-cyclobutyl-6-[(3R,5S)-3,5-dimethylpiperazin-1-yl]-2-{8-fluoro-2-methylimidazo[1,2-a]pyridin-6-yl}quinazoline-4-carboxamide]
IC50 [1]: 100 to 1000 nM | IC50 [2]: 1000 to 10000 nM | IC50 [3]: 100 to 1000 nM | Effect of Exemplary Compounds on Cell Viability, K562 [4]: A (A represents <100 nM)

Cc1c(O)c(-c2nc(C(N)=O)c3cc(N4C[C@H](C)N[C@@H](C)C4)ccc3n2)cc2cn(C)nc12 [Compound 796]
IC50 [1]: 100 to 1000 nM | IC50 [2]: > 10000 nM | IC50 [3]: 100 to 1000 nM | Effect of Exemplary Compounds on Cell Viability, K562 [4]: A (A represents <100 nM)

C[C@H]1CN(c2ccc3nc(-c4cc5cn(C)nc5cc4O)nc(C(N)=O)c3c2)C[C@H](C)N1 [Compound 797]
IC50 [1]: 1000 to 10000 nM | IC50 [2]: > 10000 nM | IC50 [3]: 100 to 1000 nM | Effect of Exemplary Compounds on Cell Viability, K562 [4]: A (A represents <100 nM)

Cc1cn2cc(-c3ncc4cc(N5C[C@H](C)N[C@@H](C)C5)ccc4n3)cc(F)c2n1 [Compound 803, 6-[(3S,5S)-3,5-dimethylpiperazin-1-yl]-2-{8-fluoro-2-methylimidazo[1,2-a]pyridin-6-yl}quinazoline]
IC50 [1]: 100 to 1000 nM | IC50 [2]: 100 to 1000 nM | IC50 [3]: 100 to 1000 nM | Effect of Exemplary Compounds on Cell Viability, K562 [4]: A (A represents <100 nM)

Cc1c(O)c(-c2ccc3cc(N4CCNC5(CC5)C4)cc(F)c3n2)cc2cn(C)nc12 [Compound 805, 5-(6-{4,7-diazaspiro[2.5]octan-7-yl}-8-fluoroquinolin-2-yl)-2,7-dimethylindazol-6-ol]
IC50 [1]: 100 to 1000 nM | IC50 [2]: 100 to 1000 nM | IC50 [3]: < 100 nM | Effect of Exemplary Compounds on Cell Viability, K562 [4]: B (B represents 100-1000 nM)
